{"source": "patent US6525001B1", "about": "“Substituted pyrimidine and pyridine herbicides” (Mid-American Commercialization Corporation, priority 1997, dated 2003)", "format_in_all_cases": "in vivo", "key": {"[1]": {"system": "johnsongrass (Sorghum halepense)", "assay": "Test C", "settings": "PREEMERGENCE"}, "[2]": {"system": "cocklebur (Xanthium strumarium)", "assay": "Test C", "settings": "PREEMERGENCE, Rate 140 g/ha"}, "[3]": {"system": "alexandergrass (Brachiaria plantaginea)", "assay": "Test E pre-/postemergence/post directed", "text": "(§1) Seeds, tubers, or plant parts of alexandergrass (Brachiaria plantaginea), annual bluegrass (Poa annua), arrowleaf sida (Sida rhombifolia), barnyardgrass (Echinochloa crus-galli), bermudagrass (Cynodon dactylon), citrus (Citrus sinensis), common chickweed (Stellaria media), common purslane (Portulaca oleracea), common ragweed (Ambrosia elatior), common groundsel (Senecio vulgaris), dallisgrass (Paspalum dilatatum), goosegrass (Eleusine indica), green foxtail (Setaria viridis), guineagrass (Panicum maximum), itchgrass (Rottboellia exaltata), johnson grass (Sorghum halepense), kochia (Kochia scoparia), large crabgrass (Digitaria sanguinalis), leafy spurge (Euphorbia esula), pitted morningglory (Ipomoea lacunosa), purple nutsedge (Cyperus rotundus), quackgrass (Agropyron repens), Russian thistle (Salsola kali), sandbur (Cenchrus echinatus), sourgrass (Trichachne insularis), Spanishneedles (Bidens bipinnata), sugarcane (Saccharum officinarum), surinam grass (Brachiaria decumbens) and tall mallow (Malva sylvestris) were planted into greenhouse pots of flats containing greenhouse planting medium. Plant species were grown grown in separate pots or individual compartments. Preemergence applications were made within one day of planting the seed or plant part. Postemergence applications were applied when the plants were in the two to four leaf stage (three to twenty cm).\n(§2) Test chemicals were formulated in a non-phytotoxic solvent mixture which included a surfactant and applied preemergence to the soil surface, postemergence to the plants or as a post directed spray to plants and soil at the base of the target species. Untreated control plants and treated plants were placed in the greenhouse and visually evaluated for injury 13 to 21 days after herbicide application. Plant response ratings, summarized in Table E, are based on a 0 to 100 scale where 0 is no injury and 100 is complete control. A dash (−) response means no test result."}, "[4]": {"system": "large crabgrass (Digitaria sanguinalis)", "assay": "Test E pre-/postemergence/post directed", "text": "as §1, §2"}, "[5]": {"system": "johnson grass (Sorghum halepense)", "assay": "Test E pre-/postemergence/post directed", "text": "as §1, §2"}, "[6]": {"system": "sandbur (Cenchrus echinatus)", "assay": "Test E pre-/postemergence/post directed", "text": "as §1, §2"}, "[7]": {"system": "Spanishneedles (Bidens bipinnata)", "assay": "Test E pre-/postemergence/post directed", "text": "as §1, §2"}, "[8]": {"system": "common groundsel (Senecio vulgaris)", "assay": "Test E pre-/postemergence/post directed", "settings": "POSTEMERGENCE, Rate 250 g/ha", "text": "as §1, §2"}, "[9]": {"system": "common ragweed (Ambrosia elatior)", "assay": "Test E pre-/postemergence/post directed", "text": "as §1, §2"}, "[10]": {"system": "pitted morningglory (Ipomoea lacunosa)", "assay": "Test E pre-/postemergence/post directed", "text": "as §1, §2"}, "[11]": {"system": "bermudagrass (Cynodon dactylon)", "assay": "Test E pre-/postemergence/post directed", "text": "as §1, §2"}, "[12]": {"system": "itchgrass (Rottboellia exaltata)", "assay": "Test E pre-/postemergence/post directed", "text": "as §1, §2"}, "[13]": {"system": "large crabgrass (Digitaria sanguinalis)", "assay": "Test E pre-/postemergence/post directed", "set-up": "key: 0 is no effect; 100 is complete control", "settings": "PREEMERGENCE", "how_it_was_run": "(§3)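 Injury was scored visually on a 0 to 100 scale (100 = complete control) 13 to 21 days after treatment of greenhouse-grown plants. Test chemicals, in a surfactant-containing non-phytotoxic solvent, were sprayed onto soil within a day of planting, onto plants at the two to four leaf stage, or directed at the base of the plants.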"}, "[14]": {"system": "common ragweed (Ambrosia elatior)", "assay": "Test E pre-/postemergence/post directed", "set-up": "key: 0 is no effect; 100 is complete control", "settings": "PREEMERGENCE", "how_it_was_run": "as §3"}, "[15]": {"system": "common purslane (Portulaca oleracea)", "assay": "Test E pre-/postemergence/post directed", "set-up": "key: 0 is no effect; 100 is complete control", "how_it_was_run": "as §3"}, "[16]": {"system": "goosegrass (Eleusine indica)", "assay": "Test E pre-/postemergence/post directed", "set-up": "key: 0 is no effect; 100 is complete control", "how_it_was_run": "as §3"}, "[17]": {"system": "redroot pigweed (Amaranthus retroflexus)", "assay": "Test C", "set-up": "key: 0 was no effect; 100 was complete control", "settings": "PREEMERGENCE"}, "[18]": {"system": "field bindweed (Convolvulus arvensis)", "assay": "Test C", "set-up": "key: 0 was no effect; 100 was complete control", "settings": "PREEMERGENCE"}}, "data": [{"smiles": "COc1cnc(-c2ccc(C(F)(F)F)cc2)nc1Cc1cccc(C(F)(F)F)c1", "note": "[Compound 23]", "values": [{"measurement": "Plant response rating, Johnsongrass", "setting": "[1]; Rate 35 g/ha", "result": 5}, {"measurement": "Plant response rating, Johnsongrass", "setting": "[1]; Rate 70 g/ha", "result": 20}, {"measurement": "Plant response rating, Johnsongrass", "setting": "[1]; Rate 140 g/ha", "result": 80}, {"measurement": "Plant response rating, Cocklebur", "setting": "[2]", "result": 5}, {"measurement": "Plant response rating, Alexandergrass", "setting": "[3]; POSTEMERGENCE, Rate 250 g/ha", "result": 80}, {"measurement": "Plant response rating, Alexandergrass", "setting": "[3]; PREEMERGENCE, Rate 125 g/ha", "result": 85}, {"measurement": "Plant response rating, Alexandergrass", "setting": "[3]; PREEMERGENCE, Rate 250 g/ha", "result": 98}, {"measurement": "Plant response rating, Large crabgrass", "setting": "[4]; POSTEMERGENCE, Rate 250 g/ha", "result": 40}, {"measurement": "Plant response rating, Large crabgrass", "setting": "[4]; PREEMERGENCE, Rate 32 g/ha", "result": 98}, {"measurement": "Plant response rating, Large crabgrass", "setting": "[4]; PREEMERGENCE, Rate 64 g/ha", "result": 98}, {"measurement": "Plant response rating, Johnsongrass", "setting": "[5]; POSTEMERGENCE, Rate 250 g/ha", "result": 65}, {"measurement": "Plant response rating, Johnsongrass", "setting": "[5]; PREEMERGENCE, Rate 32 g/ha", "result": 70}, {"measurement": "Plant response rating, Johnsongrass", "setting": "[5]; PREEMERGENCE, Rate 64 g/ha", "result": 80}, {"measurement": "Plant response rating, Johnsongrass", "setting": "[5]; PREEMERGENCE, Rate 125 g/ha", "result": 80}, {"measurement": "Plant response rating, Johnsongrass", "setting": "[5]; PREEMERGENCE, Rate 250 g/ha", "result": 90}, {"measurement": "Plant response rating, Sandbur", "setting": "[6]; POSTEMERGENCE, Rate 250 g/ha", "result": 20}, {"measurement": "Plant response rating, Sandbur", "setting": "[6]; PREEMERGENCE, Rate 32 g/ha", "result": 85}, {"measurement": "Plant response rating, Sandbur", "setting": "[6]; PREEMERGENCE, Rate 64 g/ha", "result": 80}, {"measurement": "Plant response rating, Sandbur", "setting": "[6]; PREEMERGENCE, Rate 125 g/ha", "result": 80}, {"measurement": "Plant response rating, Sandbur", "setting": "[6]; PREEMERGENCE, Rate 250 g/ha", "result": 98}, {"measurement": "Plant response rating, Spanishneedles", "setting": "[7]; POSTEMERGENCE, Rate 250 g/ha", "result": 10}, {"measurement": "Plant response rating, Spanishneedles", "setting": "[7]; PREEMERGENCE, Rate 32 g/ha", "result": 60}, {"measurement": "Plant response rating, Spanishneedles", "setting": "[7]; PREEMERGENCE, Rate 64 g/ha", "result": 70}, {"measurement": "Plant response rating, Com. groundsel", "setting": "[8]", "result": 40}, {"measurement": "Plant response rating, Com. ragweed", "setting": "[9]; POSTEMERGENCE, Rate 250 g/ha", "result": 40}, {"measurement": "Plant response rating, Com. ragweed", "setting": "[9]; PREEMERGENCE, Rate 32 g/ha", "result": 50}, {"measurement": "Plant response rating, Com. ragweed", "setting": "[9]; PREEMERGENCE, Rate 64 g/ha", "result": 70}, {"measurement": "Plant response rating, P. morninglory", "setting": "[10]; POSTEMERGENCE, Rate 250 g/ha", "result": 40}, {"measurement": "Plant response rating, P. morninglory", "setting": "[10]; PREEMERGENCE, Rate 125 g/ha", "result": 50}, {"measurement": "Plant response rating, P. morninglory", "setting": "[10]; PREEMERGENCE, Rate 250 g/ha", "result": 80}, {"measurement": "Plant response rating, Bermudagrass", "setting": "[11]; POSTEMERGENCE, Rate 250 g/ha", "result": 10}, {"measurement": "Plant response rating, Bermudagrass", "setting": "[11]; PREEMERGENCE, Rate 32 g/ha", "result": 90}, {"measurement": "Plant response rating, Bermudagrass", "setting": "[11]; PREEMERGENCE, Rate 64 g/ha", "result": 98}, {"measurement": "Plant response rating, Bermudagrass", "setting": "[11]; PREEMERGENCE, Rate 125 g/ha", "result": 98}, {"measurement": "Plant response rating, Bermudagrass", "setting": "[11]; PREEMERGENCE, Rate 250 g/ha", "result": 98}, {"measurement": "Plant response rating, Itchgrass", "setting": "[12]; POSTEMERGENCE, Rate 250 g/ha", "result": 80}, {"measurement": "Plant response rating, Itchgrass", "setting": "[12]; PREEMERGENCE, Rate 32 g/ha", "result": 30}, {"measurement": "Plant response rating, Itchgrass", "setting": "[12]; PREEMERGENCE, Rate 64 g/ha", "result": 60}, {"measurement": "Plant response rating, Itchgrass", "setting": "[12]; PREEMERGENCE, Rate 125 g/ha", "result": 70}, {"measurement": "Plant response rating, Itchgrass", "setting": "[12]; PREEMERGENCE, Rate 250 g/ha", "result": 70}, {"measurement": "Plant response rating, Large crabgrass", "setting": "[13]; Rate 125 g/ha", "result": 100}, {"measurement": "Plant response rating, Large crabgrass", "setting": "[13]; Rate 250 g/ha", "result": 100}, {"measurement": "Plant response rating, Com. ragweed", "setting": "[14]; Rate 125 g/ha", "result": 100}, {"measurement": "Plant response rating, Com. ragweed", "setting": "[14]; Rate 250 g/ha", "result": 100}, {"measurement": "Plant response rating, Com. purslane", "setting": "[15]; POSTEMERGENCE, Rate 250 g/ha", "result": 50}, {"measurement": "Plant response rating, Com. purslane", "setting": "[15]; PREEMERGENCE, Rate 32 g/ha", "result": 100}, {"measurement": "Plant response rating, Com. purslane", "setting": "[15]; PREEMERGENCE, Rate 64 g/ha", "result": 100}, {"measurement": "Plant response rating, Com. purslane", "setting": "[15]; PREEMERGENCE, Rate 125 g/ha", "result": 100}, {"measurement": "Plant response rating, Com. purslane", "setting": "[15]; PREEMERGENCE, Rate 250 g/ha", "result": 100}, {"measurement": "Plant response rating, Goosegrass", "setting": "[16]; POSTEMERGENCE, Rate 250 g/ha", "result": 75}, {"measurement": "Plant response rating, Goosegrass", "setting": "[16]; PREEMERGENCE, Rate 32 g/ha", "result": 98}, {"measurement": "Plant response rating, Goosegrass", "setting": "[16]; PREEMERGENCE, Rate 64 g/ha", "result": 98}, {"measurement": "Plant response rating, Goosegrass", "setting": "[16]; PREEMERGENCE, Rate 125 g/ha", "result": 98}, {"measurement": "Plant response rating, Goosegrass", "setting": "[16]; PREEMERGENCE, Rate 250 g/ha", "result": 100}, {"measurement": "Plant response rating, Redroot pigweed", "setting": "[17]; Rate 35 g/ha", "result": 100}, {"measurement": "Plant response rating, Redroot pigweed", "setting": "[17]; Rate 70 g/ha", "result": 100}, {"measurement": "Plant response rating, Redroot pigweed", "setting": "[17]; Rate 140 g/ha", "result": 100}, {"measurement": "Plant response rating, Field bindweed", "setting": "[18]; Rate 35 g/ha", "result": 20}, {"measurement": "Plant response rating, Field bindweed", "setting": "[18]; Rate 70 g/ha", "result": 100}, {"measurement": "Plant response rating, Field bindweed", "setting": "[18]; Rate 140 g/ha", "result": 100}]}]}
